# Read-outs that look alike come from different tables or passages of the source.
# Assays:
# Experiment in all cases: biochemical
# Design in all cases: KINOMEscan scanMAX competition binding, DNA-tagged kinases, qPCR read-out, percent control at 300 nM
# CHEK1 = CHEK1 (Homo sapiens, UniProt O14757)
# PIK3CA(M1043I) = PIK3CA(M1043I) (Homo sapiens, UniProt P42336, M1043I)
# CSNK1G2 = CSNK1G2 (Homo sapiens, UniProt P78368)
# CDKL1 = CDKL1 (Homo sapiens, UniProt Q00532)
# [1] = molecular target: T1, TYK2(JH2domain-pseudokinase) (Homo sapiens, UniProt P29597)
# T1 construct: JH2domain-pseudokinase
# GSK3A = GSK3A (Homo sapiens, UniProt P49840)
# YANK1 = molecular target: T2, YANK1 (Homo sapiens, UniProt Q8WU08)
# T2 construct: gene STK32A
# ACVR1B = ACVR1B (Homo sapiens, UniProt P36896)
# YSK4 = molecular target: T3, YSK4 (Homo sapiens, UniProt Q56UN5)
# T3 construct: gene MAP3K19
# GCN2(Kin.Dom.2,S808G) = molecular target: T4, GCN2(Kin.Dom.2,S808G) (Homo sapiens, UniProt Q9P2K8, S808G)
# T4 construct: gene EIF2AK4; Kin.Dom.2
# PIP5K1A = PIP5K1A (Homo sapiens, UniProt Q99755)
# ADCK4 = molecular target: T5, ADCK4 (Homo sapiens, UniProt Q96D53)
# T5 construct: gene COQ8B
# MKNK2 = MKNK2 (Homo sapiens, UniProt Q9HBH9)
# EPHB3 = EPHB3 (Homo sapiens, UniProt P54753)
# LKB1 = molecular target: T6, LKB1 (Homo sapiens, UniProt Q15831)
# T6 construct: gene STK11
# MAPKAPK2 = MAPKAPK2 (Homo sapiens, UniProt P49137)
# ABL1-phosphorylated = molecular target: T7, ABL1-phosphorylated (Homo sapiens, UniProt P00519)
# T7 construct: phosphorylated
# MAST1 = MAST1 (Homo sapiens, UniProt Q9Y2H9)
# ACVR2B = ACVR2B (Homo sapiens, UniProt Q13705)
# FYN = FYN (Homo sapiens, UniProt P06241)
# FGFR4 = FGFR4 (Homo sapiens, UniProt P22455)
# PLK4 = PLK4 (Homo sapiens, UniProt O00444)
# p38-beta = molecular target: T8, p38-beta (Homo sapiens, UniProt Q15759)
# T8 construct: gene MAPK11
# [2] = read-out: Percent control / Acalabrutinib
# [3] = read-out: Percent control / Ibrutinib
# [4] = read-out: Percent control / Zanubrutinib
# Sequence of PIP5K1A (Q99755 whole entry): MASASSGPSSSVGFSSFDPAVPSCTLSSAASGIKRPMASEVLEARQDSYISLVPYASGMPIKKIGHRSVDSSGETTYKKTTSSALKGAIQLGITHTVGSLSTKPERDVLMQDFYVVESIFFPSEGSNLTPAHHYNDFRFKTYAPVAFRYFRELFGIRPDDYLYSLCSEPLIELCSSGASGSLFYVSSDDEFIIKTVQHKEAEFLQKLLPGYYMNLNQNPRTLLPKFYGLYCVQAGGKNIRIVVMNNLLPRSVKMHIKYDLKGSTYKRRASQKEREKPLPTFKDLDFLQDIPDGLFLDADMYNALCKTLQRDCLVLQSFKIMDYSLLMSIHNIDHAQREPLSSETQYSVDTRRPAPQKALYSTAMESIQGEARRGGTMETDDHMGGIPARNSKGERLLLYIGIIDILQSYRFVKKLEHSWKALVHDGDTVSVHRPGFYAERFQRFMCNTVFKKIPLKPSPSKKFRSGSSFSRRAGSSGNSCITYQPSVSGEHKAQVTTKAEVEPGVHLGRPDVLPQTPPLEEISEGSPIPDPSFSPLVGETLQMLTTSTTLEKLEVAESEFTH
# Sequence of EPHB3 (P54753 whole entry): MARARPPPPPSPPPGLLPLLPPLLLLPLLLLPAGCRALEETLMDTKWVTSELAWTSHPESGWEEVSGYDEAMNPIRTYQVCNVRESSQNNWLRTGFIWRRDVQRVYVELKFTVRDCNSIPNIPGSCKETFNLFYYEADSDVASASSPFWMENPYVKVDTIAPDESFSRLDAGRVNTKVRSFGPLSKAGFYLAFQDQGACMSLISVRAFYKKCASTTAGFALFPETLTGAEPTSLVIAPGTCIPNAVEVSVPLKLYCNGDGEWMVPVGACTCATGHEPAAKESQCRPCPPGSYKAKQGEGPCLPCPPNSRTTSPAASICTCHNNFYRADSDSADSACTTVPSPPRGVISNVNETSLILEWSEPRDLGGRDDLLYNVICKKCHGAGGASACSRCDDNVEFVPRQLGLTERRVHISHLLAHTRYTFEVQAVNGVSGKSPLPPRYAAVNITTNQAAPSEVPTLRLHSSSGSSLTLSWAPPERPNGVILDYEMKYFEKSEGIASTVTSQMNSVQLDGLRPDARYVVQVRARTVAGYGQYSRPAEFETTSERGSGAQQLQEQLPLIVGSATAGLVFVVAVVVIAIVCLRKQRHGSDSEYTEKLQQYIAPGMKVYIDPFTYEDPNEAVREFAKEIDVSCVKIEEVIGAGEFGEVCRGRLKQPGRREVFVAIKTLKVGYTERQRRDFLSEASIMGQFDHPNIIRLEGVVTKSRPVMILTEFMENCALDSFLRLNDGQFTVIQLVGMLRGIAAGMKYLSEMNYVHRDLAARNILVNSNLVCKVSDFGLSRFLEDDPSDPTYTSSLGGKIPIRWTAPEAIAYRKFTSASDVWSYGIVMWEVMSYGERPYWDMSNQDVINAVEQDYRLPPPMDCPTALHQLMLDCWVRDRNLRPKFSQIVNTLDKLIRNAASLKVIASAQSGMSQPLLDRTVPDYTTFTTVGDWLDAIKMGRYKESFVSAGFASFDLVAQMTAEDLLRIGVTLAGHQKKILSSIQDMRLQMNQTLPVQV
# T8 sequence (Q15759 whole entry): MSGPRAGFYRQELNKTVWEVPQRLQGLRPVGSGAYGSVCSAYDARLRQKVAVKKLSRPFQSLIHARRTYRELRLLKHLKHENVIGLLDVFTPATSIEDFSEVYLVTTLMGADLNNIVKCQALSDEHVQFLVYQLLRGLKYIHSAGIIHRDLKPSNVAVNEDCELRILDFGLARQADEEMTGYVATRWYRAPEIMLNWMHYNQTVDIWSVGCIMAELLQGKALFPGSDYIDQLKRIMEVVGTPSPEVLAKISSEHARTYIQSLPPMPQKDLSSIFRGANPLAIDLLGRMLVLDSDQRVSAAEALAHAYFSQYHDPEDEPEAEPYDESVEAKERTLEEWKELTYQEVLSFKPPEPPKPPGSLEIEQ
# Sequence of MAST1 (Q9Y2H9 whole entry): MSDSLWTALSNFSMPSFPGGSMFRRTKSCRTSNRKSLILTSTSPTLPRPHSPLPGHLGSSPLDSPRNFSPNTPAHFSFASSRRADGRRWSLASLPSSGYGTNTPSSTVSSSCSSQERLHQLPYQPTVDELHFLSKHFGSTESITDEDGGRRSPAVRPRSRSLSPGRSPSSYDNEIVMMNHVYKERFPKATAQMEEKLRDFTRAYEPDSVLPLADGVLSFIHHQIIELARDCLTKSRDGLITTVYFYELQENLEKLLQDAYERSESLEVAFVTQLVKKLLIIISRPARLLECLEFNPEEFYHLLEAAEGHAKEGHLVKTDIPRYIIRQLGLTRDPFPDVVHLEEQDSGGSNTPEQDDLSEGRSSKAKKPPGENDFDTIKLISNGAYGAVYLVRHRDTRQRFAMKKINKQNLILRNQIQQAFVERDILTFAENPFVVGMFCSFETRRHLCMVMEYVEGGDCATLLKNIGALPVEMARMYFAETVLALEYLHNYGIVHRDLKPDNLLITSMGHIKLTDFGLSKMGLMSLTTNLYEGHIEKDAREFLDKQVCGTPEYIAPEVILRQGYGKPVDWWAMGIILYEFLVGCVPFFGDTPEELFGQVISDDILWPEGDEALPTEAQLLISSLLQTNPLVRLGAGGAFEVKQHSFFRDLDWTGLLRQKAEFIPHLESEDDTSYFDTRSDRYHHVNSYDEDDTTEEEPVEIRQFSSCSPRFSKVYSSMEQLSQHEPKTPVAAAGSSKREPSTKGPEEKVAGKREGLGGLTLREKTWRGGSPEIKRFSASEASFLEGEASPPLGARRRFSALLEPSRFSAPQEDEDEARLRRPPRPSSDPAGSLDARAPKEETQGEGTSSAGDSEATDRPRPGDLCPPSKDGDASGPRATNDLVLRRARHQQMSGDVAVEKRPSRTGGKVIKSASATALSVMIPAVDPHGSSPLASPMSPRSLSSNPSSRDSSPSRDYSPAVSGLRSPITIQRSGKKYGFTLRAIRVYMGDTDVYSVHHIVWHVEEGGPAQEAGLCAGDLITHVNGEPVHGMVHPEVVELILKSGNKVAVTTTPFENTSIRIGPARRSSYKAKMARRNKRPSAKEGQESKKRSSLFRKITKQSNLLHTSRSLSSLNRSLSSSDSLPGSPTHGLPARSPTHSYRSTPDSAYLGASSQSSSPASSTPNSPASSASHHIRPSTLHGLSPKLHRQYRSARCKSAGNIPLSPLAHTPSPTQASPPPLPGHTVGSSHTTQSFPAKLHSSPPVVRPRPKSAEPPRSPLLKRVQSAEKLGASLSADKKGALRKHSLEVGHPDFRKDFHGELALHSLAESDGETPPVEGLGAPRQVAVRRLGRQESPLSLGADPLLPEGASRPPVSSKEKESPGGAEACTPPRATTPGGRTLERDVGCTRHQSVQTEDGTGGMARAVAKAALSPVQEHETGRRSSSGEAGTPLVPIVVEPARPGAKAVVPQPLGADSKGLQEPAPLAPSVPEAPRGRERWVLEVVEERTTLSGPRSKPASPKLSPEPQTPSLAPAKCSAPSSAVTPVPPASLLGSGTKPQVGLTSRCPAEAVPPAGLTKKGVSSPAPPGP
# Sequence of PIK3CA(M1043I) (P42336 whole entry M1043I): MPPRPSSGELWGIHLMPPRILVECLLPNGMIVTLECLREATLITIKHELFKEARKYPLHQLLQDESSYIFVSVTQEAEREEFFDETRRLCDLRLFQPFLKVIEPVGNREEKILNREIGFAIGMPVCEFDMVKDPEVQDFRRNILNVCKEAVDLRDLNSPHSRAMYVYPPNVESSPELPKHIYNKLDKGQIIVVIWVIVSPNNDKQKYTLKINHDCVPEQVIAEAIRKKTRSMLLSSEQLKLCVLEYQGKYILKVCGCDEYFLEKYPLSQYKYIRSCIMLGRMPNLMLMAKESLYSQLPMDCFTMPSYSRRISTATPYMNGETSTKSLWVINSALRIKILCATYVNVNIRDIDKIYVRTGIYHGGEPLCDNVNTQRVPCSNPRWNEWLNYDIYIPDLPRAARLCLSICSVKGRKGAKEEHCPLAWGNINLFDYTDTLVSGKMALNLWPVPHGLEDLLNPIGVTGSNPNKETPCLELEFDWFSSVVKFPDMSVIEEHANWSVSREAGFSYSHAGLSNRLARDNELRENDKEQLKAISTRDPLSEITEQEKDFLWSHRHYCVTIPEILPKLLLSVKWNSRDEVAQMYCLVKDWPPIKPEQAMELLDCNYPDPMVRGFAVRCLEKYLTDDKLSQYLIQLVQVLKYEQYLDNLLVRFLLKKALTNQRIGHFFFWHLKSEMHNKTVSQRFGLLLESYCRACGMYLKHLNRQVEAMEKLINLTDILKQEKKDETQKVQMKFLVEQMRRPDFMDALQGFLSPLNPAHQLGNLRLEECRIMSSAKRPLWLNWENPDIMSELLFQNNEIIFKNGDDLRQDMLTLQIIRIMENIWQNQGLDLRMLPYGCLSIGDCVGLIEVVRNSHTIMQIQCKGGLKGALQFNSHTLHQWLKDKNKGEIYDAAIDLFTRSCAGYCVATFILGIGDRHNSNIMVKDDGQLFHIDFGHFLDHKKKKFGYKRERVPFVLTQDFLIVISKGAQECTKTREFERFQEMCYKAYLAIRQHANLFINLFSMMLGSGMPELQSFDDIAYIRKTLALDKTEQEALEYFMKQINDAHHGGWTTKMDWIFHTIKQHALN
# T2 sequence (Q8WU08 whole entry): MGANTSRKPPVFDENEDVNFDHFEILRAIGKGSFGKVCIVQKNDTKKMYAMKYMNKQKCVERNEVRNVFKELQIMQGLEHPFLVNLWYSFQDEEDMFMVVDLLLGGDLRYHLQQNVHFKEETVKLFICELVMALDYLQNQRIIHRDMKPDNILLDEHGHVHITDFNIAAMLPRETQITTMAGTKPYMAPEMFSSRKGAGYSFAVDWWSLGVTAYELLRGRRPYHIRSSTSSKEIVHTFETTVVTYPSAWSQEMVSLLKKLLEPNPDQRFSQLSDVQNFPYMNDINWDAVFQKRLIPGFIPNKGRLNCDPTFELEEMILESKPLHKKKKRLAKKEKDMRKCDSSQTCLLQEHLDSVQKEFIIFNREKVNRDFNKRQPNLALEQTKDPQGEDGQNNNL
compound,measurement,setting,value
CC#CC(=O)N1CCC[C@H]1c1nc(-c2ccc(C(=O)Nc3ccccn3)cc2)c2c(N)nccn12 [Acalabrutinib],remaining binding at 0.3 µM,CHEK1; [2],88%
same,remaining binding at 0.3 µM,PIK3CA(M1043I); [2],90%
same,remaining binding at 0.3 µM,CSNK1G2; [2],87%
same,remaining binding at 0.3 µM,CDKL1; [2],93%
same,remaining binding at 0.3 µM,[1]; [2],97%
same,remaining binding at 0.3 µM,GSK3A; [2],74%
same,remaining binding at 0.3 µM,YANK1; [2],97%
same,remaining binding at 0.3 µM,ACVR1B; [2],99%
same,remaining binding at 0.3 µM,YSK4; [2],74%
same,remaining binding at 0.3 µM,"GCN2(Kin.Dom.2,S808G); [2]",91%
same,remaining binding at 0.3 µM,PIP5K1A; [2],83%
same,remaining binding at 0.3 µM,ADCK4; [2],96%
same,remaining binding at 0.3 µM,MKNK2; [2],93%
same,remaining binding at 0.3 µM,EPHB3; [2],91%
same,remaining binding at 0.3 µM,LKB1; [2],94%
same,remaining binding at 0.3 µM,MAPKAPK2; [2],72%
same,remaining binding at 0.3 µM,ABL1-phosphorylated; [2],95%
same,remaining binding at 0.3 µM,MAST1; [2],87%
same,remaining binding at 0.3 µM,ACVR2B; [2],85%
same,remaining binding at 0.3 µM,FYN; [2],95%
same,remaining binding at 0.3 µM,FGFR4; [2],91%
C=CC(=O)N1CCC[C@@H](n2nc(-c3ccc(Oc4ccccc4)cc3)c3c(N)ncnc32)C1 [Ibrutinib],remaining binding at 0.3 µM,PLK4; [3],86%
same,remaining binding at 0.3 µM,p38-beta; [3],85%
same,remaining binding at 0.3 µM,FYN; [3],19%
C=CC(=O)N1CCC([C@@H]2CCNc3c(C(N)=O)c(-c4ccc(Oc5ccccc5)cc4)nn32)CC1 [Zanubrutinib],remaining binding at 0.3 µM,CHEK1; [4],92%
same,remaining binding at 0.3 µM,PLK4; [4],84%
same,remaining binding at 0.3 µM,PIK3CA(M1043I); [4],90%
same,remaining binding at 0.3 µM,CSNK1G2; [4],88%
same,remaining binding at 0.3 µM,CDKL1; [4],82%
same,remaining binding at 0.3 µM,[1]; [4],82%
same,remaining binding at 0.3 µM,GSK3A; [4],98%
same,remaining binding at 0.3 µM,p38-beta; [4],82%
same,remaining binding at 0.3 µM,YANK1; [4],75%
same,remaining binding at 0.3 µM,ACVR1B; [4],92%
same,remaining binding at 0.3 µM,YSK4; [4],100%
same,remaining binding at 0.3 µM,"GCN2(Kin.Dom.2,S808G); [4]",100%
same,remaining binding at 0.3 µM,PIP5K1A; [4],92%
same,remaining binding at 0.3 µM,ADCK4; [4],100%
same,remaining binding at 0.3 µM,MKNK2; [4],84%
same,remaining binding at 0.3 µM,EPHB3; [4],96%
same,remaining binding at 0.3 µM,LKB1; [4],84%
same,remaining binding at 0.3 µM,MAPKAPK2; [4],96%
same,remaining binding at 0.3 µM,ABL1-phosphorylated; [4],77%
same,remaining binding at 0.3 µM,MAST1; [4],100%
same,remaining binding at 0.3 µM,ACVR2B; [4],91%
same,remaining binding at 0.3 µM,FGFR4; [4],91%

# Reference: publication PMC10004634 (PLOS ONE, 2023)
